Earlier results, collected in article doi:10.1101/2023.04.03.535218, “Distributable, Metabolic PET Reporting of Tuberculosis” (bioRxiv, 2023).

Biological target: T1, OtsA^Sf (Escherichia coli, UniProt P31677)
T1 construct: C-terminally tagged, purified on Ni-NTA
T1 sequence (P31677 2-474): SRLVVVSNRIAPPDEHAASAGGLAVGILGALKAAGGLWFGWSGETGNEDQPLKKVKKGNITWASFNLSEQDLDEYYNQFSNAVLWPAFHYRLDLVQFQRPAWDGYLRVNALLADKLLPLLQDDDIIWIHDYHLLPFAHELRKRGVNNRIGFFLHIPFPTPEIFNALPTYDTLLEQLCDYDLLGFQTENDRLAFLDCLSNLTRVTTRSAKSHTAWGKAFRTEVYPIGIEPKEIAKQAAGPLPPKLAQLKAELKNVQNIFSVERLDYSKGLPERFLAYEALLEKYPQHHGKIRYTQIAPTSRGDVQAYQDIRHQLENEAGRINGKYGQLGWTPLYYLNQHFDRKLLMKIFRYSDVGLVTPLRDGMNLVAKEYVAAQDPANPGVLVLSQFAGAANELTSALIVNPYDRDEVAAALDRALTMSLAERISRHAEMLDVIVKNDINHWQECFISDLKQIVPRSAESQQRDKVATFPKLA
Test: NADH-linked continuous assay (Methods)
Format: biochemical
Settings: co-substrate UDP-Glc; table note a (taken from Reference 41) is also set on this row, text presents it as own

O=P(O)(O)OC[C@H]1OC(O)[C@H](O)[C@@H](O)[C@@H]1O (stereo partly shown) [G6P]
Km: 4.9 ± 0.5 mM
